In PMC11605156, “Triterpenoids from Ganoderma lucidum inhibit cytochrome P450 enzymes interfering with the metabolic process of specific clinical drugs” (Frontiers in Pharmacology, 2024):

Tests used:
CYP3A4 = CYP3A4 (Homo sapiens, UniProt P08684); test: CYP3A4 inhibition, probe/drug metabolism in human liver microsomes; settings: human, human liver microsomes, pH 7.4, probe midazolam 5 μM, Residual activity (%) CYP3A4, HLM 0.5 mg/mL, midazolam 5 μM, 30 min
Procedure: (§1) The total volume of the in vitro metabolic incubation system is 200 μL. The probe substrate concentration in the system is shown in Supplementary Table S1. […] The reaction sample was preheated in a constant temperature mixer at 37°C. Then NADP^+ was added to the system to initiate the reaction. The reaction time is 30 min, and 100 μL acetonitrile will be added on time to quickly terminate the reaction, followed by centrifugation at 4°C and 20,000 g for 20 min. The supernatant was analyzed using liquid chromatography tandem mass spectrometry (LC-MS/MS), and the activity of CYP enzymes was evaluated by the generation of probe metabolites. The mass spectrometry information of probe substrates is shown in Supplementary Table S3.
(§2) The isolated triterpenoids (1–66) were used to establish a compounds library. The inhibitory effects of 66 triterpenoids from G. lucidum on seven subtypes of CYP enzymes (CYP1A2, 2A6, 2D6, 2B6, 2C9, 2C19, 3A4) were evaluated followed the above-mentioned experimental procedures.
(§3) For 16 clinical drugs metabolized by CYP enzymes, potential DDI studies were conducted on triterpenoids (6, 25) of G. lucidum, and IC50 values were measured.
(§4) Clinical drugs: Phenacetin, melatonin, clozapine and riluzole are metabolized by CYP1A2. Bupropion, artemisinin, efavirenz and sertraline are metabolized by CYP2B6. Diclofenac, valsartan, glimepiride and glibenclamide are metabolized by CYP2C9. Midazolam, imatinib, simvastatin and diltiazem are metabolized by CYP3A4.
(§5) Table S1. The information of probes for CYPs activity assay
(§6) Table S2. Information of clinical drugs

CYP2C19 = CYP2C19 (Homo sapiens, UniProt P33261); test: CYP2C19 inhibition, S-mephenytoin probe in human liver microsomes; settings: S-mephenytoin 50 μM, 30 min; for activity at 30 min: human, human liver microsomes, pH 7.4, probe S-mephenytoin 50 μM, Residual activity (%) CYP2C19, HLM 0.5 mg/mL
CYP2C19, sequence (P33261 whole entry): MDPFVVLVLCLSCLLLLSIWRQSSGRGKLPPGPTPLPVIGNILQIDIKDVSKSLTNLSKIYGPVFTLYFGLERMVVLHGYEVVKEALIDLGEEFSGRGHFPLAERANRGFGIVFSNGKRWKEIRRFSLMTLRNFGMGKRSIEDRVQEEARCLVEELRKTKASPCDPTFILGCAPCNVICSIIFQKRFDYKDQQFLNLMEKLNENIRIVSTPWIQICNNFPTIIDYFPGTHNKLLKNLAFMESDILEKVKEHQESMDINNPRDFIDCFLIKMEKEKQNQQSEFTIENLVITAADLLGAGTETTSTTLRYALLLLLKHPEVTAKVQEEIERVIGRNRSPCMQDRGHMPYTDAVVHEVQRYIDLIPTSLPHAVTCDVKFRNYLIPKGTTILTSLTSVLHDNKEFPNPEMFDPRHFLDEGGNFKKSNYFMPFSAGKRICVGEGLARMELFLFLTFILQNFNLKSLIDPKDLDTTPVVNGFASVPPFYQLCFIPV
Procedure: as §1, §2, §5

CYP2D6 = CYP2D6 (Homo sapiens, UniProt P10635); test: CYP2D6 inhibition, dextromethorphan probe in human liver microsomes; settings: for activity at 30 min: human, human liver microsomes, pH 7.4, probe dextromethorphan 5 μM, Residual activity (%) CYP2D6, HLM 0.5 mg/mL
CYP2D6, sequence (P10635 whole entry): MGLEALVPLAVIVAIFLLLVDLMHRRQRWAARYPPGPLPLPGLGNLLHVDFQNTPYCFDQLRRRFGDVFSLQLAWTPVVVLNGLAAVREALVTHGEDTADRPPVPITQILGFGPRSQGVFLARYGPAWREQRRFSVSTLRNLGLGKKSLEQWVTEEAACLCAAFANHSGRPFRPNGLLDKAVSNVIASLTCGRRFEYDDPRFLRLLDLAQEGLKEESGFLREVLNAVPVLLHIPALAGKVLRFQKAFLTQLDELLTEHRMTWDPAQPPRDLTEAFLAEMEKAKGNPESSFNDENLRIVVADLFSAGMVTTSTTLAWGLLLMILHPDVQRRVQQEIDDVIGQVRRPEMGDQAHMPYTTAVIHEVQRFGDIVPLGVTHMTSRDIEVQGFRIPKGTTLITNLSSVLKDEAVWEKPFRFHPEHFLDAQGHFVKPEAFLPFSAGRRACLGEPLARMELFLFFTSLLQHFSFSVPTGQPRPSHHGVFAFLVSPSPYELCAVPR
Procedure: as §1, §2, §5

CYP1A2 = molecular target: T1, CYP1A2 (Homo sapiens, UniProt P05177); test: CYP1A2 inhibition, probe/drug metabolism in human liver microsomes (LC-MS/MS); settings: for activity at 30 min: human, human liver microsomes, pH 7.4, probe phenacetin 40 μM, Residual activity (%) CYP1A2, HLM 0.5 mg/mL
T1 sequence (P05177 1-516): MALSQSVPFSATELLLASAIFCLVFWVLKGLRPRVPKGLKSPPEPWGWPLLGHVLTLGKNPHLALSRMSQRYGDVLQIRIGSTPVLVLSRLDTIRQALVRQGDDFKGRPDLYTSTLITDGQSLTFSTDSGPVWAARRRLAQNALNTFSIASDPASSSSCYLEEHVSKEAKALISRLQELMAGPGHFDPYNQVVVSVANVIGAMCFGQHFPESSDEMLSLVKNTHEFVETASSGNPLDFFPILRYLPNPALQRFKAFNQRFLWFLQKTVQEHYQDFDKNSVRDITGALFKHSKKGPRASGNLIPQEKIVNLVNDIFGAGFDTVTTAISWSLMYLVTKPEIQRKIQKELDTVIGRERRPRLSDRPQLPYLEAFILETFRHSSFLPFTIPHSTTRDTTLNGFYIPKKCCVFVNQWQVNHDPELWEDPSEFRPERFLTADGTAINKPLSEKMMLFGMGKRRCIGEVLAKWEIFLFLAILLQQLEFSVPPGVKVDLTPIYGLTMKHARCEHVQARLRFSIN
Procedure: as §1, §2, §3, §4, §5, §6

CYP2A6 = molecular target: T2, CYP2A6 (Homo sapiens, UniProt P11509); test: CYP2A6 inhibition, coumarin probe in human liver microsomes; settings: for activity at 30 min: human, human liver microsomes, pH 7.4, probe coumarin 2 μM, Residual activity (%) CYP2A6, HLM 0.5 mg/mL
T2 sequence (P11509 1-494): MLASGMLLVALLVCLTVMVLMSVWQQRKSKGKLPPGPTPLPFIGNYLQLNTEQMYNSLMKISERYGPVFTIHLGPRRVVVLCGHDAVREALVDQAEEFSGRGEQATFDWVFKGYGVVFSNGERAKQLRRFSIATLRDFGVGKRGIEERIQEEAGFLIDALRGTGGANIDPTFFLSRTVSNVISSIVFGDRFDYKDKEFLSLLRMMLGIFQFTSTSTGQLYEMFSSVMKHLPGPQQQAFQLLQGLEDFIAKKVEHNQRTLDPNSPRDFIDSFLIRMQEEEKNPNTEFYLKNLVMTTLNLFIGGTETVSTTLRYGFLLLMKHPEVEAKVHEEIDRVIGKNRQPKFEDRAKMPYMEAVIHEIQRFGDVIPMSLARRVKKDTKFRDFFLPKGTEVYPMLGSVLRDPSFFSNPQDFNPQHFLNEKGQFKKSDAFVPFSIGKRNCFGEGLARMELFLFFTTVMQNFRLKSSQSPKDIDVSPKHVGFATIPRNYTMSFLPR
Procedure: as §1, §2, §5

CYP2C9 = CYP2C9 (Homo sapiens, UniProt P11712); test: CYP2C9 inhibition, probe/drug metabolism in human liver microsomes; settings: diclofenac 4 μM, 30 min; for activity at 30 min: human, human liver microsomes, pH 7.4, probe diclofenac 4 μM, Residual activity (%) CYP2C9, HLM 0.5 mg/mL
CYP2C9, sequence (P11712 whole entry): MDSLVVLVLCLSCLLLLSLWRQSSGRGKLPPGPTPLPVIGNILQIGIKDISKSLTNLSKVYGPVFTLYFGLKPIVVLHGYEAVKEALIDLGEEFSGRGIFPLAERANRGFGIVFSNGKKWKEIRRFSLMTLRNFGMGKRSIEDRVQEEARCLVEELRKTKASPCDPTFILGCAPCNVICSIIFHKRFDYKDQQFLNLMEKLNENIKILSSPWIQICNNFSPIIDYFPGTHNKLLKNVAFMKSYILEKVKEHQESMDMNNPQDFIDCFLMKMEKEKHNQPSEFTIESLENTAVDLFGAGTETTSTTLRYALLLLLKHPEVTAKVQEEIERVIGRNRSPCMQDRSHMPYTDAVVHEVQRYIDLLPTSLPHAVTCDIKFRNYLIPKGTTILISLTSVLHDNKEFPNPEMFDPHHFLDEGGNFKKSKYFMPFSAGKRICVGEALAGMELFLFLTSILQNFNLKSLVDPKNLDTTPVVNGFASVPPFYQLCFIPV
Procedure: as §1, §2, §3, §4, §5, §6

CYP2B6 = molecular target: T3, CYP2B6 (Homo sapiens, UniProt P20813); test: CYP2B6 inhibition, probe/drug metabolism in human liver microsomes; settings: bupropion 75 μM, 30 min; for activity at 30 min: human, human liver microsomes, pH 7.4, probe bupropion 75 μM, Residual activity (%) CYP2B6, HLM 0.5 mg/mL
T3 sequence (P20813 1-491): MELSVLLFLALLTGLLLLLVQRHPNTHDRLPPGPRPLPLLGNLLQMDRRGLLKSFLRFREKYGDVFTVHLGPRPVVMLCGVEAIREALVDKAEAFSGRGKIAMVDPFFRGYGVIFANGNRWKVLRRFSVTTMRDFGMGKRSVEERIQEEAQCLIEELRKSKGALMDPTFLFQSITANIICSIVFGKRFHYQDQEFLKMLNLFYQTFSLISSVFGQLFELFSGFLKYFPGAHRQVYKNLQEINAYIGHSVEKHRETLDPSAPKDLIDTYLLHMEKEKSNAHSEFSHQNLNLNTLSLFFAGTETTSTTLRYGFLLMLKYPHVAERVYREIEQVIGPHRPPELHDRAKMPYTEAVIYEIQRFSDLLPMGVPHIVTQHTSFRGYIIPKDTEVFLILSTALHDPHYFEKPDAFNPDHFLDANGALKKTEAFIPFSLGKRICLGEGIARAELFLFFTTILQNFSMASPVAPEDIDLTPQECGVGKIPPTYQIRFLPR
Procedure: as §1, §2, §3, §4, §5, §6

in vivo = settings: male, SD, rat, in vivo; for AUC(0-inf) / AUC(0-t) / Cmax / Tmax / Vz_F: po
Procedure: SD rats (Male, weighing 220 g ± 20 g) were divided into a dichloromethane administration group and a control group with 6 rats in each group. Both groups were given probe substrate drugs by gavage. […] 200 μL blood samples were taken from the rat jugular vein at 0.167, 0.333, 0.5, 0.75, 1, 2, 3, 4, 6, 8, 10, and 12 h after the administration of the probe substrate. After precipitation of proteins by with 600 μL acetonitrile via centrifugation […] at 4°C at 3,500 rpm for 10 min. The supernatant was detected using liquid chromatography-tandem mass spectrometry (LC-MS/MS). The mass spectrometry information of the probe drug is shown in Supplementary Table S3. Animal experiments in this study were approved by the Animal Ethics Committee of the Dalian Medical University.

[1] = IC50 against CYP 1A2, substrate phenacetin 40 μM, HLM

CYP3A4, sequence (P08684 whole entry): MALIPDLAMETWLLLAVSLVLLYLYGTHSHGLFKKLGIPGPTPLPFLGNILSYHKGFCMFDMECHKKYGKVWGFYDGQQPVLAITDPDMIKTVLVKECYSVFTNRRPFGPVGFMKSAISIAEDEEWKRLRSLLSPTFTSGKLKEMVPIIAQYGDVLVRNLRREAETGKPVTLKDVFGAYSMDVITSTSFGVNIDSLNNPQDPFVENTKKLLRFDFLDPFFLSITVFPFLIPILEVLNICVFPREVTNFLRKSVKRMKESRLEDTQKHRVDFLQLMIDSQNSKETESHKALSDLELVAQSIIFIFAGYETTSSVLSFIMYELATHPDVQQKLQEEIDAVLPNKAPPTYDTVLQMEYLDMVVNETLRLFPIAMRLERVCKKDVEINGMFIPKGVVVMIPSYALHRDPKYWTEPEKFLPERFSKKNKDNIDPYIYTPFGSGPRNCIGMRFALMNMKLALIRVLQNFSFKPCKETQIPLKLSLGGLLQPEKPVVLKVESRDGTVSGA

Row | activity at 30 min (CYP3A4) [%] | activity at 30 min (CYP2C19) [%] | activity at 30 min (CYP2D6) [%] | IC50 (CYP1A2; [1]) [µM] | activity at 30 min (CYP1A2; phenacetin 40 μM, 30 min) [%] | activity at 30 min (CYP2A6) [%] | activity at 30 min (CYP2C9) [%] | activity at 30 min (CYP2B6) [%] | AUM (in vivo) | Cl_F_ (in vivo) | AUC(0-inf) (in vivo) [ng·h/mL] | AUC(0-t) (in vivo) [ng·h/mL] | Cmax (in vivo) [ng/mL] | Tmax (in vivo) [min] | Vz_F (in vivo) | Structure (SMILES) | also measured
1 | 82.8 ± 1.1 | 109 ± 6.43 | 86.9 ± 1.32 | 34.2 ± 6.9 | 56 ± 0.69 | 72.3 ± 1.11 | 92.5 ± 0.99 | 84.1 ± 0.94 | – | – | – | – | – | – | – | CC(=O)OC1C(=O)C2=C(C(=O)CC3C2(C)CCC(O)C3(C)C)C2(C)C(=O)CC(C3(C)CCC(=O)O3)C12C (centres unmarked) [Compound 56] | –
2 | – | – | – | – | – | – | – | – | 15,378.075 ± 3,089.500 h*ng/mL | 3,954.386 ± 375.228 mL/h/kg | 5090 | 4950 | 1890 ± 154 | 25 ± 7.74 | 10,405.594 ± 1,602.189 mL/kg | CC(NC(C)(C)C)C(=O)c1cccc(Cl)c1 (centres unmarked) [Bup, bupropion] | –
3 | 72.57 ± 0.19 | 58.5 ± 8.25 | 66.7 ± 6.29 | 9.62 ± 2.03 | 28 ± 1.5 | 75.3 ± 1.29 | 90.5 ± 3.9 | 84.6 ± 5.76 | – | – | – | – | – | – | – | CC(=CC(=O)CC(C)C(=O)O)C1CC(=O)C2(C)C3=C(C(=O)C(O)C12C)C1(C)CCC(=O)C(C)(CO)C1CC3O (centres unmarked) [Compound 6, ganoderica F] | IC50 (CYP1A2; IC50 against metabolism of clozapine mediated by CYP1A2, substrate clozapine 10 μM, 20 min): 12.9 ± 1.11 µM; IC50 (CYP1A2; IC50 against metabolism of melatonin mediated by CYP1A2, substrate melatonin 5 μM, 30 min): 19 ± 1.68 µM; IC50 (CYP1A2; IC50 against metabolism of riluzole mediated by CYP1A2, substrate riluzole 5 μM, 60 min): 14.8 ± 2.15 µM; IC50 (CYP1A2; IC50 values, metabolism of four drugs mediated by CYP 1A2, range over phenacetin, riluzole, clozapine, melatonin): 9.62 to 19 µM
4 | – | – | – | – | – | – | – | – | 692.744 ± 85.4782 ng·h/mL | 14,264.696 ± 912.942 mL/h/kg | 352 ± 22.6 | 342 ± 22.6 | 364 ± 38.1 | 37.5 ± 8.22 | 31,514.554 ± 6,298.860 mL/kg | CCOc1ccc(NC(C)=O)cc1 [PHE, Phenacetin] | –
5 | – | – | – | – | – | – | – | – | – | – | – | – | – | – | – | CC(CC(=O)CC(C)C1CC(=O)C2(C)C3=C(C(=O)CC12C)C1(C)CCC(O)C(C)(C)C1CC3=O)C(=O)O (centres unmarked) [Compound 55] | Residual activity (%) CYP2C19 (CYP2C19; HLM 0.5 mg/mL): 104.32±8.04%; Residual activity (%) CYP2D6 (CYP2D6; HLM 0.5 mg/mL, dextromethorphan 5 μM, 30 min): 86.79±5.16%; Residual activity (%) CYP1A2 (CYP1A2; HLM 0.5 mg/mL, phenacetin 40 μM, 30 min): 71.10±3.67%; Residual activity (%) CYP2A6 (CYP2A6; HLM 0.5 mg/mL, coumarin 2 μM, 30 min): 74.81±0.70%; Residual activity (%) CYP2C9 (CYP2C9; HLM 0.5 mg/mL): 96.25±6.96%; Residual activity (%) CYP2B6 (CYP2B6; HLM 0.5 mg/mL): 77.81±6.09%
6 | – | – | – | – | – | – | – | – | 7,332.465 ± 1,560.101 h*ng/mL | 4,276.363 ± 388.068 mL/h/kg | 2350 | 2270 | 912 ± 68.1 | 17.5 ± 6.12 | 12,244.920 ± 1707.693 mL/kg | O=C(O)Cc1ccccc1Nc1c(Cl)cccc1Cl [Dic, diclofenac] | –
